Results reported in patent US8895504B2, “Amylin derivatives” (priority 2008, dated 2014).
*1 amine or outer side, *2 acyl side, *3 side chain or, on linkers, in order; H or OH if unused. Where a SMILES comes first, the peptide text is derived from it. Bridges are numbered along the chain shown (N, C = ends). The star is where a group is joined. C20 diacid = O=C(O)CCCCCCCCCCCCCCCCCCC(=O)*; γGlu = O=C(O)[C@H](CCC(=O)[*:2])N[*:1]

Key:
[1] = Assay (V) PK - determination of T½ in mini-pig; type: in vivo; settings: minipig, sc; terminal plasma half-life, subcutaneous, approx 2 nmol/kg, male Göttingen mini-pigs
Description: Assay (V) PK—Determination OF T½ in Mini-Pig
T½ is the terminal half-life=ln 2/λz of a compound in plasma. λz is the first order rate constant associated with the terminal (log-linear) portion of the plasma concentration-time curve and is estimated by linear regression of time vs. log concentration.
T½ values of the amylin analogues of the invention is determined by pharmacokinetic studies in male Göttingen mini-pigs from Ellegaard Göttingen Minipigs ApS and the principles of laboratory animal care are followed.
An acclimatization period of approximately 6-10 days was allowed before the animals entered the study. At start of the acclimatization period the mini-pigs were about 5 to 12 months old and in the weight range of 7-35 kg. The mini-pigs had two central venous catheters inserted which were used for blood sampling.
The studies were conducted in an animal room which was illuminated to give a cycle of approx 12 hours light and 12 hours darkness. The animals were housed individually.
The animals had free access to domestic quality drinking water during the study, but were typically fasted from overnight before dosing until approx 6-12 hours after dosing. The animals were weighed on arrival and on the days of dosing.
In the present studies the test substances were administered subcutaneously in approx 2 nmol/kg dose. The animals received a single subcutaneous injection. The subcutaneous injection was given on the right side of the neck, approximately 5-7 cm from the ear and 7-9 cm from the middle of the neck. The injections were given with a stopper on the needle, allowing approx 0.5 cm of the needle to be introduced. Each test substance was given to typically three but in some cases two or four animals.
A full plasma concentration-time profile, employing 12-16 sampling points, was obtained from each animal. In example blood samples were collected according to the following schedule:
After subcutaneous administration:
Predose (0), 0.5, 1, 2, 4, 6, 8, 12, 24, 48, 72, 96, 120, 168 and 240 hours after injection. In some cases also additional blood samples up to 288 hours post injection were taken.
At each sampling time, 0.5 to 2 ml of blood was drawn from each animal. The blood samples were taken via the central venous catheter.
The blood samples were collected into EDTA test tubes (i.e. Sarstedt Micro tube 1.3 mL K3E). Blood samples were kept on ice for max 20 min. before centrifugation. Plasma was separated using centrifugation (i.e. at 4° C., 10 min., 1500 G) and was immediately transferred to Micronic tubes. Approximately 200 μl plasma was transferred to each Micronic tube. The plasma was stored at −20° C. until assayed. The plasma samples were assayed for the content of amylin using an ELISA assay.
The plasma concentration-time profiles were analysed by a non-compartmental pharmacokinetic analysis (NCA) using WinNonlin Professional 5.0 (Pharsight Inc., Mountain View, Calif., USA). NCA was performed using the individual plasma concentration-time profiles from each animal. T½ is the terminal half-life=ln 2/λz and was determined from λz, the first order rate constant associated with the terminal (log-linear) portion of the curve, estimated by linear regression of time vs. log concentration.
ELISA Plasma Assay for Amylin Quantification
The human amylin ELISA is a monoclonal antibody-based sandwich immunoassay for determining amylin levels in human plasma. The capture antibody recognizes human amylin, amylin acid (deamidated amylin), a 1-20 fragment of amylin, but not reduced amylin.
The detection antibody binds to reduced or unreduced human amylin but not amylin acid and is complexed with streptavidin-alkaline phosphatase. The substrate, 4-methylumbelliferyl phosphate, is applied to the completed sandwich and the fluorescent signal, monitored at 355 nm/460 nm, is proportional to the amount of amylin present in the sample.

[2] = biological target: T1, Amylin 3(a) receptor (human calcitonin receptor (CTa) and RAMP-3) (Homo sapiens, UniProt O60896+P30988); assay: Luciferase assay (III), BHK Amylin 3(a)//CRE-luc cells; type: cell-based; settings: BHK cells with Amylin 3(a) receptor and CRE luciferase reporter, 4 hours incubation; read-out: Potency Luciferase
T1 construct: expressed in transfected cells; host or cells: BHK570 cells, stably transfected with a CRE-luciferase reporter
Procedure, shortened: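 BHK570 cells stably expressing CTa, RAMP-3 and a CRE-luciferase reporter, seeded at about 20,000 cells/well and grown overnight. Cells were exposed to standard or sample for 4 h at 37° C in phenol red-free DMEM with 10% FBS and 10 mM Hepes, pH 7,4. Luminescence was read after 30 min LucLite at room temperature.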

T1 sequence (O60896 24-148): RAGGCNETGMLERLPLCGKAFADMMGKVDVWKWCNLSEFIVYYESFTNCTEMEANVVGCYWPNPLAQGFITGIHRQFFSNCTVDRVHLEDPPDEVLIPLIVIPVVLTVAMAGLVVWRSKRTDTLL
T1 sequence (P30988 25-474): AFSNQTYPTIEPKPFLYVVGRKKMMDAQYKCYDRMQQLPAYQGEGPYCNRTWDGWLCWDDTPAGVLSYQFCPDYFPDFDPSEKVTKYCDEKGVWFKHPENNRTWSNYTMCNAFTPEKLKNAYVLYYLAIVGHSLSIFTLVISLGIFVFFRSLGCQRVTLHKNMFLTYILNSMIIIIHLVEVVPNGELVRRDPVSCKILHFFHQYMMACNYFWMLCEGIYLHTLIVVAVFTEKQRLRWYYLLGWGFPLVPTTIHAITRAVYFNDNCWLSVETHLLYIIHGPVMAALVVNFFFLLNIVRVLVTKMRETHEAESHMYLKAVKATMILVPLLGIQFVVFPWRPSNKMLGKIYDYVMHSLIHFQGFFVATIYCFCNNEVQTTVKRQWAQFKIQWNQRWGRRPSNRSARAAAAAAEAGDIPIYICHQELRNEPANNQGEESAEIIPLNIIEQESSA

Row | Structure (SMILES) | half-life [1] | EC50 [2]
1 | CC[C@H](C)[C@H](NC(=O)[C@@H]1CCCN1C(=O)CNC(=O)[C@H](Cc1ccccc1)NC(=O)[C@H](CC(N)=O)NC(=O)[C@H](CC(N)=O)NC(=O)[C@H](CO)NC(=O)[C@H](CO)NC(=O)[C@H](Cc1c[nH]cn1)NC(=O)[C@H](Cc1c[nH]cn1)NC(=O)[C@H](CC(C)C)NC(=O)[C@H](Cc1ccccc1)NC(=O)[C@H](CC(N)=O)NC(=O)[C@H](C)NC(=O)[C@H](CC(C)C)NC(=O)[C@H](CCCNC(=N)N)NC(=O)[C@H](CCC(N)=O)NC(=O)[C@@H](NC(=O)[C@H](C)NC(=O)[C@@H]1CSSC[C@H](NC(=O)[C@H](Cc2c[nH]cn2)NC(=O)CC[C@H](NC(=O)CCCCCCCCCCCCCCCCCCC(=O)O)C(=O)O)C(=O)N[C@@H](CC(N)=O)C(=O)N[C@@H]([C@@H](C)O)C(=O)N[C@@H](C)C(=O)N[C@@H]([C@@H](C)O)C(=O)N1)[C@@H](C)O)C(=O)N[C@@H](CC(C)C)C(=O)N1CCC[C@H]1C(=O)N1CCC[C@H]1C(=O)N[C@H](C(=O)N[C@@H](CC(N)=O)C(=O)N[C@H](C(=O)NCC(=O)N[C@@H](CO)C(=O)N[C@@H](CC(N)=O)C(=O)N[C@H](C(=O)N[C@@H](Cc1ccc(O)cc1)C(N)=O)[C@@H](C)O)C(C)C)[C@@H](C)O [Example 29, N-alpha-[(S)-4-Carboxy-4-(19-carboxynonadecanoylamino)butyryl]-[His1,His17]-pramlintide] ({C20 diacid-γGlu}-HCNTATCATQRLANFLHHSSNNFGPILPPTNVGSNTY-NH2; disulfide 2-7) | 110 h | 0.07 nM
2 | CC[C@H](C)[C@H](NC(=O)[C@@H]1CCCN1C(=O)CNC(=O)[C@H](Cc1ccccc1)NC(=O)[C@H](CC(N)=O)NC(=O)[C@H](CC(N)=O)NC(=O)[C@H](CO)NC(=O)[C@H](CO)NC(=O)[C@H](Cc1c[nH]cn1)NC(=O)[C@H](Cc1c[nH]cn1)NC(=O)[C@H](CC(C)C)NC(=O)[C@H](Cc1ccccc1)NC(=O)[C@H](CC(N)=O)NC(=O)[C@H](C)NC(=O)[C@H](CC(C)C)NC(=O)[C@H](CCCNC(=N)N)NC(=O)[C@H](CCC(N)=O)NC(=O)[C@@H](NC(=O)[C@H](C)NC(=O)[C@@H]1CSSC[C@H](NC(=O)[C@H](CCCNC(=N)N)NC(=O)[C@H](CCCNC(=N)N)NC(=O)[C@H](Cc2c[nH]cn2)NC(=O)[C@H](CCC(=O)O)NC(=O)CC[C@H](NC(=O)CCCCCCCCCCCCCCCCCCC(=O)O)C(=O)O)C(=O)N[C@@H](CC(N)=O)C(=O)N[C@@H]([C@@H](C)O)C(=O)N[C@@H](C)C(=O)N[C@@H]([C@@H](C)O)C(=O)N1)[C@@H](C)O)C(=O)N[C@@H](CC(C)C)C(=O)N1CCC[C@H]1C(=O)N1CCC[C@H]1C(=O)N[C@H](C(=O)N[C@@H](CC(N)=O)C(=O)N[C@H](C(=O)NCC(=O)N[C@@H](CO)C(=O)N[C@@H](CC(N)=O)C(=O)N[C@H](C(=O)N[C@@H](Cc1ccc(O)cc1)C(N)=O)[C@@H](C)O)C(C)C)[C@@H](C)O [Example 55, N-alpha-[(S)-4-Carboxy-4-(19-carboxynonadecanoylamino)butyryl]-Glu-His-Arg-[Arg1,His17]-pramlintide] ({C20 diacid-γGlu}-EHRRCNTATCATQRLANFLHHSSNNFGPILPPTNVGSNTY-NH2; disulfide 5-10) | 38 h | 0.2 nM
